Measured values taken from ChEMBL document CHEMBL1275457, “Postantibiotic effects and bactericidal activities of levofloxacin and gatifloxacin at concentrations simulating those of topical ophthalmic administration against fluoroquinolone-resistant and fluoroquinolone-sensitive methicillin-resistant Staphylococcus aureus strains” (2008).
Active and inactive are the calls of the source.

Experiments:
Staphylococcus aureus [1] = test: Antimicrobial activity against high level levofloxacin and methicillin-resistant Staphylococcus aureus JCSC 6763 expressing gyrA Ser84Leu/Ser85Pro and grlA Ser80Phe/Glu84Lys mutants by broth microdilution method; assay type: functional
Staphylococcus aureus [2] = test: Antimicrobial activity against high level levofloxacin and methicillin-resistant Staphylococcus aureus JCSC 6764 expressing gyrA Ser84Leu, gyrB Asp437Glu norA T389C and grlA Ser80Phe/Glu84Lys mutants by broth microdilution method; assay type: functional
Staphylococcus aureus [3] = test: Antimicrobial activity against high level levofloxacin and methicillin-resistant Staphylococcus aureus JCSC 6765 expressing gyrA Ser84Leu, norA T389C and grlA Ser80Phe/Glu84Lys mutants by broth microdilution method; assay type: functional
Staphylococcus aureus [4] = test: Antimicrobial activity against low level levofloxacin and methicillin-resistant Staphylococcus aureus JCSC 6766 expressing gyrA Glu84Lys and grlA Ser80Phe mutants by broth microdilution method; assay type: functional
Staphylococcus aureus [5] = test: Antimicrobial activity against low level levofloxacin and methicillin-resistant Staphylococcus aureus JCSC 6767 expressing gyrA Glu84Lys and grlA Ser80Phe mutants by broth microdilution method; assay type: functional
Staphylococcus aureus [6] = test: Antimicrobial activity against low level levofloxacin and methicillin-resistant Staphylococcus aureus JCSC 6768 expressing gyrA Glu84Lys and grlA Ser80Phe mutants by broth microdilution method; assay type: functional
Staphylococcus aureus [7] = test: Antimicrobial activity against levofloxacin-sensitive and methicillin-resistant Staphylococcus aureus JCSC 6769 by broth microdilution method; assay type: functional
Staphylococcus aureus [8] = test: Antimicrobial activity against levofloxacin-sensitive and methicillin-resistant Staphylococcus aureus JCSC 6770 by broth microdilution method; assay type: functional
Staphylococcus aureus [9] = test: Antimicrobial activity against levofloxacin-sensitive and methicillin-resistant Staphylococcus aureus JCSC 6822 harboring mutation in norA gene by broth microdilution method; assay type: functional
Staphylococcus aureus [10] = test: Bactericidal activity against methicillin-resistant Staphylococcus aureus at 4 times MIC upto 60 mins by time-kill assay; assay type: functional, organism-based
Staphylococcus aureus [11] = test: Bactericidal activity against methicillin-resistant Staphylococcus aureus at 8 times MIC upto 60 mins by time-kill assay; assay type: functional, organism-based
Staphylococcus aureus [12] = test: Bactericidal activity against methicillin-resistant Staphylococcus aureus at 16 times MIC upto 60 mins by time-kill assay; assay type: functional, organism-based
Staphylococcus aureus [13] = test: Bactericidal activity against low level levofloxacin and methicillin-resistant Staphylococcus aureus at 4 times MIC after 24 hrs by time-kill assay; assay type: functional, organism-based
Staphylococcus aureus [14] = test: Bactericidal activity against high level levofloxacin and methicillin-resistant Staphylococcus aureus at 4 times MIC after 24 hrs by time-kill assay; assay type: functional, organism-based
Staphylococcus aureus [15] = test: Bactericidal activity against levofloxacin-sensitive and methicillin-resistant Staphylococcus aureus at 4 times MIC after 24 hrs by time-kill assay; assay type: functional, organism-based
Staphylococcus aureus [16] = test: Bactericidal activity against low level levofloxacin and methicillin-resistant Staphylococcus aureus at 8 times MIC after 24 hrs by time-kill assay; assay type: functional, organism-based
Staphylococcus aureus [17] = test: Bactericidal activity against high level levofloxacin and methicillin-resistant Staphylococcus aureus at 8 times MIC after 24 hrs by time-kill assay; assay type: functional, organism-based
Staphylococcus aureus [18] = test: Bactericidal activity against levofloxacin-sensitive and methicillin-resistant Staphylococcus aureus at 8 times MIC after 24 hrs by time-kill assay; assay type: functional, organism-based
Staphylococcus aureus [19] = test: Bactericidal activity against low level levofloxacin and methicillin-resistant Staphylococcus aureus at 16 times MIC after 24 hrs by time-kill assay; assay type: functional, organism-based
Staphylococcus aureus [20] = test: Bactericidal activity against high level levofloxacin and methicillin-resistant Staphylococcus aureus at 16 times MIC after 24 hrs by time-kill assay; assay type: functional, organism-based
Staphylococcus aureus [21] = test: Bactericidal activity against levofloxacin-sensitive and methicillin-resistant Staphylococcus aureus at 16 times MIC after 24 hrs by time-kill assay; assay type: functional, organism-based
Staphylococcus aureus [22] = test: Bactericidal activity against low level levofloxacin and methicillin-resistant Staphylococcus aureus at 2048 ug/ml after 24 hrs by time-kill assay; assay type: functional, organism-based
Staphylococcus aureus [23] = test: Bactericidal activity against high level levofloxacin and methicillin-resistant Staphylococcus aureus at 2048 ug/ml after 24 hrs by time-kill assay; assay type: functional, organism-based
Staphylococcus aureus [24] = test: Bactericidal activity against levofloxacin-sensitive and methicillin-resistant Staphylococcus aureus at 2048 ug/ml after 24 hrs by time-kill assay; assay type: functional, organism-based
Staphylococcus aureus [25] = test: Bactericidal activity against low level levofloxacin and methicillin-resistant Staphylococcus aureus at 4 times MIC after 120 mins by time-kill assay; assay type: functional, organism-based
Staphylococcus aureus [26] = test: Bactericidal activity against low level levofloxacin and methicillin-resistant Staphylococcus aureus at 8 times MIC after 120 mins by time-kill assay; assay type: functional, organism-based
Staphylococcus aureus [27] = test: Bactericidal activity against low level levofloxacin and methicillin-resistant Staphylococcus aureus at 16 times MIC after 120 mins by time-kill assay; assay type: functional, organism-based

C[C@H]1COc2c(N3CCN(C)CC3)c(F)cc3c(=O)c(C(=O)O)cn1c23.C[C@H]1COc2c(N3CCN(C)CC3)c(F)cc3c(=O)c(C(=O)O)cn1c23.O [LEVOFLOXACIN]
8 µg/mL: MIC (Staphylococcus aureus [4]) | MIC (Staphylococcus aureus [5])
512 µg/mL: MIC (Staphylococcus aureus [1])
64 µg/mL: MIC (Staphylococcus aureus [3])
0.25 µg/mL: MIC (Staphylococcus aureus [8]) | MIC (Staphylococcus aureus [9])
0.5 µg/mL: MIC (Staphylococcus aureus [7])
4 µg/mL: MIC (Staphylococcus aureus [6])
inactive: Activity (Staphylococcus aureus [10]) | Activity (Staphylococcus aureus [11]) | Activity (Staphylococcus aureus [12])
active: Activity (Staphylococcus aureus [13]) | Activity (Staphylococcus aureus [14]) | Activity (Staphylococcus aureus [15]) | Activity (Staphylococcus aureus [16]) | Activity (Staphylococcus aureus [17]) | Activity (Staphylococcus aureus [18]) | Activity (Staphylococcus aureus [19]) | Activity (Staphylococcus aureus [20]) | Activity (Staphylococcus aureus [21]) | Activity (Staphylococcus aureus [22]) | Activity (Staphylococcus aureus [23]) | Activity (Staphylococcus aureus [24])
256 µg/mL: MIC (Staphylococcus aureus [2])

COc1c(N2CCNC(C)C2)c(F)cc2c(=O)c(C(=O)O)cn(C3CC3)c12 (stereo not given) [GATIFLOXACIN]
2 µg/mL: MIC (Staphylococcus aureus [4]) | MIC (Staphylococcus aureus [5]) | MIC (Staphylococcus aureus [6])
128 µg/mL: MIC (Staphylococcus aureus [1])
0.125 µg/mL: MIC (Staphylococcus aureus [7]) | MIC (Staphylococcus aureus [8]) | MIC (Staphylococcus aureus [9])
16 µg/mL: MIC (Staphylococcus aureus [3])
32 µg/mL: MIC (Staphylococcus aureus [2])
active: Activity (Staphylococcus aureus [25]) | Activity (Staphylococcus aureus [26]) | Activity (Staphylococcus aureus [27]) | Activity (Staphylococcus aureus [13]) | Activity (Staphylococcus aureus [14]) | Activity (Staphylococcus aureus [15]) | Activity (Staphylococcus aureus [16]) | Activity (Staphylococcus aureus [17]) | Activity (Staphylococcus aureus [18]) | Activity (Staphylococcus aureus [19]) | Activity (Staphylococcus aureus [20]) | Activity (Staphylococcus aureus [21]) | Activity (Staphylococcus aureus [22]) | Activity (Staphylococcus aureus [23]) | Activity (Staphylococcus aureus [24])
inactive: Activity (Staphylococcus aureus [10]) | Activity (Staphylococcus aureus [11]) | Activity (Staphylococcus aureus [12])

Cc1onc(-c2ccccc2)c1C(=O)N[C@@H]1C(=O)N2[C@@H]1SC(C)(C)[C@@H]2C(=O)O [OXACILLIN]
512 µg/mL: MIC (Staphylococcus aureus [1]) | MIC (Staphylococcus aureus [2]) | MIC (Staphylococcus aureus [4]) | MIC (Staphylococcus aureus [7])
128 µg/mL: MIC (Staphylococcus aureus [9])
256 µg/mL: MIC (Staphylococcus aureus [3]) | MIC (Staphylococcus aureus [5]) | MIC (Staphylococcus aureus [6]) | MIC (Staphylococcus aureus [8])
